Data reported in patent US20080076711A1, “Therapeutic agents for osteopenia” (Chugai Seiyaku Kabushiki Kaisha, priority 2001, published 2008).

Tested on: OPN knockout (OPN-KO) mice
Test: Determination of TRAP-positive cells (osteoclasts) after PTH treatment, OPN-KO mice
Assay type: in vivo, mouse
Conditions: PTH(+) group, 80 μg/kg s.c., 4 weeks
Protocol: After treatment with PTH, forefoot bone was excised from each animal. Each bone was rinsed with PBS, fixed for 7 days in 4% paraformaldehyde acid and decalcified for 3 days in 10% EDTA (pH 7.4), followed by dehydration and embedding in paraffin. Serial sections of 7 μm thickness were prepared from paraffin blocks and stained to measure TRAP (tartrate resistant acid phosphatase) activity, with Alcian blue for counter-staining. Among TRAP-positive cells attached to cancellous bone, those having at least three nuclei were counted using 15 serial sections of 7 μm thickness prepared from each bone. Each of the 15 sections was taken at five-section intervals from a total of 75 sections per bone. The number of multinucleated TRAP-positive cells in all 15 sections was summed to give the total number of osteoclasts per unit trabecular perimeter.
To create an animal model in which the in vivo effects of OPN were inhibited, strain 129 female mice at 7 weeks of age were modified into knockout mice deficient in the OPN gene (OPN-KO mice), as described in Rittling et al. J. Bone Miner. Res., 13: 1101-1111, 1998. These mice were singly used for PTH treatment test. They were divided into groups of 6 mice each.
Recombinant human PTH(1-34) (Bachem, Torrance, Calif.) was dissolved in acidified physiological saline supplemented with 0.1% bovine serum albumin (Sigma Chemical Co.-Aldrich, St. Louis, Mo.). […]

human PTH(1-34) was tested. Which “number of osteoclasts per unit trabecular perimeter of cancellous bone” value did it give?
The value was 7.6±1.0 cells/mm.
